Values of other authors in patent US20090226522A1, “PROCESS TO MINIMIZE POLYMORPHISM” (priority 2008, published 2009).
Like-named read-outs stand apart in the source and are kept apart here.

Cc1nnc2n1-c1ccc(Cl)cc1C(c1ccccc1)=NC2 [Alprazolam, 8-chloro-1-methyl-6-phenyl-4H-s-triazolo[4,3-α][1,4]benzodiazepine]
solubility in methanol or ethanol (methanol or ethanol): soluble | solubility in water (water): poorly soluble | solubility in water (water at physiological pH): no appreciable solubility
